“Also recorded” adds a separate entry of the source. Like-named read-outs stand apart in the source and are kept apart here. Bounds are passed on as bounds.

The subject of series [1] is HeLa S3 cells. The series is described as follows: MTT cytotoxicity assay, HeLa S3 cells. It is filed as cell-based, human. The settings on record: treatment for 24 h. As to the method: (§1) HeLa S3, A549, and IMR-90 cells (1 × 10^4 cells/well) were seeded on 96-well plates (Watson) in cell culture medium. […] After incubation for 4 h, a formazan lysis solution (10% sodium dodecyl sulfate in 0.01 N HCl aq) (100 μL) was added and the resulting solution was incubated under same conditions overnight. The absorbance at λ = 570 nm was measured with a microplate reader (Bio-Rad).
(In general: Formazan colour is commonly taken as a measure of viable cells.)

Series [2] relates to A549 cells. The series is described as follows: MTT cytotoxicity assay, A549 cells. It is filed as cell-based, human. The settings on record: read-out: IC50 A549. As for the experimental part:
as §1

In a further series the test system is IMR-90 cells. The series is described as follows: MTT cytotoxicity assay, IMR-90 cells. It is filed as cell-based. Particulars: 0–200 μM, treatment for 24 h, normal human fibroblast. As for the experimental part:
as §1

Series [3] can be described thus: Hydrolysis of the C–B bond observed by ^11B-NMR. It counts as physicochemical. From the text: The Zn^2+ complex of the o-form 7 was not obtained due to the carbon–boron bond cleavage that occurred upon complexation with Zn^2+, as previously described.[20]
Series [4] has as its system double-stranded calf-thymus DNA (ctDNA). The series is described as follows: Thermal denaturation (melting temperature) of ctDNA. The settings on record: pH 7.4; for Tm of ctDNA: without additive 66. It is filed as binding. As to the method: Thermal denaturation experiments of ctDNA (50 μM in phosphate) in 10 mM HEPES buffer (pH 7.4) with I = 0.02 (NaNO3) were performed on a JASCO V-550 UV/vis spectrophotometer (JASCO, Tokyo, Japan) equipped with a thermoelectric temperature controller (±0.5 °C), a stirring unit, and a 10 mm quartz cuvette. All aqueous solutions were made with purified water. The concentration of ctDNA was determined by UV absorption spectroscopy based on its molar extinction coefficient at 253 nm (ε253 = 6.6 × 10^3).[31d],[45] […] The Tm value was graphically determined from the spectral data, and the ΔTm value for each condition was calculated from the results in the presence and absence of additives.

Details of series [5]: method as in earlier work. The settings on record: aqueous solution at 25 °C, ref 24−26; cited from earlier work.
Details of series [6]: method as in PMID 32192025. Particulars: aqueous solution at 25 °C; cited from earlier work.
Series [7] concerns A549 cells. Kind of series: Anti-tumor effect with thermal neutron irradiation (colony formation assay). It is filed as cell-based, human. The settings on record: A549, 30 μM for 24 h, thermal neutrons 0–45 min, colony formation after 7 days. As for the experimental part: BNCT experiments using A549 cells in the presence of the aforementioned B-containing drugs (^10B/^11B and ^10B-enriched compounds) were conducted at the Institute for Integrated Radiation and Nuclear Science, Kyoto University (KURNS). As shown in Scheme 12, A549 cells were incubated with the boron compounds (30 μM) for 24 h and suspensions (5 × 10^4 cells/mL) of these cells were irradiated with thermal neutrons [average thermal neutron flux: (1.5 ± 0.1) × 10^9 n/cm^2·s] at room temperature for various times (0, 15, 30, and 45 min). The irradiated cells were seeded on the 12 well plate (3 × 10^3 cells/well), incubated for 7 days, fixed with EtOH, and stained with crystal violet to produce visualizable images (Figure S5 in the Supporting Information). The surviving fractions were calculated as the stained colony area using the “ImageJ-plugin Colony Area”[43] software and normalized by comparing the results with those for non-irradiated cell samples (Figure 6).
A549 cells (5 × 10^5 cells/well) were seeded on 6-well plates (TrueLine, USA) and incubated in cell culture medium at 37 °C under 5% CO2 for 1 day. After removing the cell culture medium, the cells were washed gently with PBS. […] The thermal neutron flux (1.5 × 10^9 n/cm^2·s) was measured by two gold foils which were attached to the surface of the 1.5 mL tube. […]

Series [8] concerns HeLa S3 cells. Kind of series: Effect of inhibitors on intracellular uptake, HeLa S3 cells. It is filed as cell-based, human. The settings on record: HeLa S3, 30 μM, 37 °C, 1 h. As for the experimental part: Data represent the mean ± SD of at least three replicates.
HeLa S3 and A549 cells (5 × 10^5 cells/well) were seeded on 6-well plates (TrueLine, USA) and incubated in cell culture medium at 37 °C under 5% CO2 for 2 days (n = 4). […] To count the number of cells after treatment with the boron compounds, the cells (n = 1) were washed with PBS, detached by trypsin, and counted with a hemocytometer. For measurement of boron uptake, the cells (n = 3) were washed with PBS (1 mL ×3) and digested with 60% HNO3 aq (0.5 mL) at room temperature for 24 h, which were transferred to 15 mL centrifuge tubes with Milli-Q water (3.5 mL). These tubes were centrifuged at 3000 rpm and 4 °C for 10 min and then sample solutions were filtered. The concentration of boron atoms was determined by ICP–MS (NexION300S, PerkinElmer, Waltham, Massachusetts, USA).

Setting [9] is: Homo sapiens, HeLa S3, 0–200 μM.

`O=C(O)C(F)(F)F.OB(O)c1ccc(CN2CCNCCNCCNCCNCC2)cc1` [14a, 1-[(4-Boronopheny)methyl]-1,4,7,10,13-pentaazacyclopentadecane] had a melting point of 136 to 137 °C. Besides, the IC50 with HeLa S3 cells [1] (setting [9]) is greater than 200 µM. The IC50 in the series on A549 cells [2] (Homo sapiens, A549, 24 h) is greater than 200 µM. Further, the IC50 in the series with IMR-90 cells (Homo sapiens, IMR-90, 24 h) was greater than 200 µM.
`O=C(O)C(F)(F)F.OB(O)c1ccc(CN2CCNCCNCC2)cc1` [12a, 1-[(4-Boronopheny)methyl]-1,4,7-triazacyclononane] had a melting point of 138 to 141 °C. The IC50 in the series with HeLa S3 cells [1] (setting [9]) was greater than 200 µM. The IC50 in the series with A549 cells [2] (Homo sapiens, A549, 24 h) was greater than 200 µM. In the series on IMR-90 cells (Homo sapiens, IMR-90, 24 h), this molecule gave an IC50 greater than 200 µM.
Consider `[Zn+2].c1ccc(B2OC3(CCCCC3)C3(CCCCC3)O2)c(CN2CCNCCNCCNCCNCC2)c1` [20c], for which the “half-life of C–B bond hydrolysis” value in [3] is roughly 24 h.
As to “sodium mercaptoborate [compound 1, reference compound]”, the IC50 with HeLa S3 cells [1] (0–200 μM) is greater than 200 µM; in the series with A549 cells [2] (MTT, 0–200 μM, treatment for 24 h), greater than 200 µM; in the series on IMR-90 cells it was greater than 200 µM.
Molecule `c1ccc(B2OC3(CCCCC3)C3(CCCCC3)O2)c(CN2CCNCCNCCNCCNCC2)c1` [17c, 1-[2-(13,15-Dioxa-15-boradispiro[5.0.5.3]pentadec-14-yl)phenyl]methyl-1,4,7,10,13-pentaazacyclopentadecane] gave a melting point of 78 to 80 °C.
In the case of `NCCCCNCCCN` [compound 3, spermidine], in [4] (r = 0.1, [ctDNA(P)] = 50 μM), the “ΔTm of ctDNA” value is “+7 °C” and the “Tm of ctDNA” value was 73 °C. Also, in series [4] (r = 0.2, [ctDNA(P)] = 50 μM), the “ΔTm of ctDNA” value was “+12 °C” and the “Tm of ctDNA” value was determined as 78 °C.
As for `c1cc(CN2CCNCCNCC2)cc(B2OC3(CCCCC3)C3(CCCCC3)O2)c1` [15b], the melting point lay in the range of 57 to 58 °C.
`O=C(O)C(F)(F)F.OB(O)c1ccc(CN2CCNCCNCCNCC2)cc1` [13a, 1-[(4-Boronopheny)methyl]-1,4,7,10-tetraazacyclododecane]: the melting point fell in the range of 172 to 175 °C. Also, the IC50 in the series with HeLa S3 cells [1] (setting [9]) is greater than 200 µM. Further, in the series with A549 cells [2] (Homo sapiens, A549, 24 h), the IC50 is greater than 200 µM. This molecule came in with a half-inhibitory concentration (IC50) in the series on IMR-90 cells (Homo sapiens, IMR-90, 24 h) greater than 200 µM.
On to `C1CNCCNCCNCCN1` [compound 10, 1,4,7,10-tetraazacyclododecane], for which, in series [5], the pKa1 result was “less than 2” and the pKa2 entry was “less than 2”.
In the case of `C1CNCCNCCN1` [compound 9, 1,4,7-triazacyclononane], in series [5], the pKa1 entry is on record as “less than 2”.
`c1cc(B2OC3(CCCCC3)C3(CCCCC3)O2)ccc1CN1CCNCCNCCNCC1` [16a]: the melting point was in the range of 129 to 131 °C.
For `C1CNCCNCCN1.[Zn+2]` [compound 31], the “log KZnL” value in series [6] was 11.3.
In turn, `c1cc(B2OC3(CCCCC3)C3(CCCCC3)O2)ccc1CN1CCNCCNCC1` [15a] displayed a melting point of 65 to 67 °C.
As for `c1cc(CN2CCNCCNCCNCC2)cc(B2OC3(CCCCC3)C3(CCCCC3)O2)c1` [16b], the melting point was 46 to 48 °C.
Take `C1CNCCNCCNCCNCCN1` [compound 11, 1,4,7,10,13-pentaazacyclopentadecane]: in [5], the pKa1 result was “less than 2” and the pKa2 result is “less than 2”.
`c1cc(B2OC3(CCCCC3)C3(CCCCC3)O2)ccc1CN1CCNCCNCCNCCNCC1` [17a] had a melting point of 43 to 44 °C.
On to `c1cc(C2OC3(CCCCC3)C3(CCCCC3)O2)ccc1CN1CCNCCNCCNCCNCC1` [^10B-17a, 1-[4-(13,15-Dioxa-15-boradispiro[5.0.5.3]pentadec-14-yl)phenyl]methyl-1,4,7,10,13-pentaazacyclopentadecane], for which, in the series with A549 cells [7], the “BNCT effect (cytotoxic activity after thermal neutron irradiation, surviving fraction)” value was “higher than that for 1 (^10B-BSH) and 2 (^10B-BPA); also recorded: higher BNCT effect than ^10B-19b and ^10B-20a”.
As to `N[C@@H](Cc1ccc([10B](O)O)cc1)C(=O)O` [compound 2, L-4-boronophenylalanine, reference compound], the IC50 in the series on HeLa S3 cells [1] (setting [9]) is greater than 200 µM; with A549 cells [2] (Homo sapiens, A549, 24 h, MTT, 0–200 μM, treatment for 24 h), greater than 200 µM; in the series on IMR-90 cells (Homo sapiens, IMR-90, 24 h), greater than 200 µM. The “relative uptake in the presence of MβCD” value in the series on HeLa S3 cells [8] (1.5 mM of MβCD) is reported as “weak inhibition”. In addition, the “relative uptake in the presence of amiloride” value with HeLa S3 cells [8] (2 mM of amiloride) is on record as “increased intracellular uptake”.

A word on the IC50: it is the concentration that inhibits the measured activity by half. A word on the melting point: it is the temperature of the solid-liquid transition.
